Test systems include SN12C renal; NCI-H522 lung; MDA-MB-231 breast; COLO 205 colon; CAKI-1 renal; SK-MEL-28 melanoma; NCI-H226 lung; LOX IMVI melanoma; SK-OV-3 ovarian; CCRF-CEM leukemia.
Holding throughout (test): NCI-60 cell line screen, 48 h

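Grown in 96-well plates, cells were treated for 48 hours with each compound at five concentrations. Insufficient inhibition: endpoint recorded as highest concentration tested. GI50 = concentration required for 50% inhibition of growth. TGI is the concentration that stops growth completely.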

Take `COc1ccccc1N1C(=O)/C(=C\c2ccccc2)SC1c1cc(OC)c(OC)c(OC)c1` (configuration not stated): the TGI in the test with SN12C renal was 87.9 µM; in the test on NCI-H522 lung, 74.3 µM; with MDA-MB-231 breast, 71.3 µM; with COLO 205 colon it was greater than 100 µM; with CAKI-1 renal, greater than 100 µM; in the test on SK-MEL-28 melanoma, greater than 100 µM. For the same compound, the TGI in the test with NCI-H226 lung was greater than 100 µM; with LOX IMVI melanoma, 50.3 µM; in the test on SK-OV-3 ovarian it was greater than 100 µM.
For the compound `O=[N+]([O-])c1ccc(N/N=C\c2ccc(O)cc2O)nc1`, the GI50 was 3.12 µM with SN12C renal; 10.8 µM with NCI-H522 lung; 2.1 µM in the test with MDA-MB-231 breast; 5.56 µM in the test on COLO 205 colon; 1.68 µM in the test on CAKI-1 renal; 5.03 µM in the test with SK-MEL-28 melanoma. For the same compound, the GI50 is 3.39 µM in the test with NCI-H226 lung, 0.754 µM in the test on LOX IMVI melanoma and 2.18 µM with SK-OV-3 ovarian. For the same compound, the TGI in the test on SN12C renal was greater than 100 µM; with NCI-H522 lung, greater than 100 µM; with MDA-MB-231 breast, greater than 100 µM; in the test on COLO 205 colon, greater than 100 µM; in the test on CAKI-1 renal it was 9.8 µM; with SK-MEL-28 melanoma, greater than 100 µM. The TGI with NCI-H226 lung, with LOX IMVI melanoma and in the test with SK-OV-3 ovarian was greater than 100 µM in each case.
As for `O=C(O)Cc1ccc(-n2nnc3c(=O)[nH][nH]c(=O)c32)cc1`, the TGI in the test with SN12C renal, in the test with CCRF-CEM leukemia, with MDA-MB-231 breast, in the test with COLO 205 colon, in the test with CAKI-1 renal and in the test with SK-MEL-28 melanoma was greater than 100 µM in each case. For the same compound, the TGI with LOX IMVI melanoma was greater than 100 µM.
For the compound `COC(=O)CC(c1ccccc1)C(C#N)(OP1(=O)OC(c2ccccc2)C(C)N1C)c1ccccc1` (configuration not stated), the TGI in the test with SN12C renal was greater than 100 µM; in the test with NCI-H522 lung, greater than 100 µM; with CCRF-CEM leukemia, greater than 100 µM; in the test on MDA-MB-231 breast it was greater than 100 µM; in the test with COLO 205 colon, 44.6 µM; with CAKI-1 renal it was greater than 100 µM. For the same compound, the TGI in the test with SK-MEL-28 melanoma, in the test with LOX IMVI melanoma and in the test with SK-OV-3 ovarian was greater than 100 µM throughout.
Regarding `CC1=NN(c2cccc(S(=O)(=O)O)c2)C2(C1)SCC(=O)N2c1nc2ccccc2s1` (configuration not stated), the TGI in the test on SN12C renal, with NCI-H522 lung, with MDA-MB-231 breast, with COLO 205 colon, in the test on CAKI-1 renal and with SK-MEL-28 melanoma was greater than 100 µM throughout. The TGI with NCI-H226 lung, in the test with LOX IMVI melanoma and with SK-OV-3 ovarian was greater than 100 µM each time.
Regarding `COc1ccc(C(CC(=O)c2ccc(O)cc2)C(C(=O)c2ccc(O)cc2)C(c2ccc(OC)cc2)C2C(=O)NC(=S)NC2=O)cc1` (configuration not stated), the TGI with SN12C renal was 57 µM; in the test with NCI-H522 lung, 29.9 µM; in the test on CCRF-CEM leukemia, 36 µM; in the test with MDA-MB-231 breast it was 55.9 µM; in the test with COLO 205 colon it was 45.1 µM; in the test with SK-MEL-28 melanoma, 48.8 µM. Also, the TGI came to 40 µM in the test on NCI-H226 lung and 38 µM in the test with LOX IMVI melanoma.
On to `Cc1cccc2c1CC1(Cc3c(C)cccc3C1=O)C2=O`, for which the TGI in the test on NCI-H522 lung, with CCRF-CEM leukemia, in the test on MDA-MB-231 breast, with CAKI-1 renal, in the test on SK-MEL-28 melanoma and in the test on LOX IMVI melanoma was greater than 100 µM throughout. The TGI with SK-OV-3 ovarian is greater than 100 µM.
As to `COc1ccccc1NC(=O)C(=O)C(C#N)CC(C)(C)C=O` (configuration not stated), the TGI in the test on SN12C renal, in the test on NCI-H522 lung, in the test with MDA-MB-231 breast, with CAKI-1 renal, in the test on SK-MEL-28 melanoma and with NCI-H226 lung was greater than 100 µM each time. For the same compound, the TGI in the test with LOX IMVI melanoma and in the test on SK-OV-3 ovarian was greater than 100 µM in each case.
Consider `NCCCCNCCCNC(=O)c1csc(-c2nc(CCN)sc2Cl)n1`, for which the TGI with SN12C renal, in the test with CCRF-CEM leukemia, in the test with COLO 205 colon, with SK-MEL-28 melanoma, in the test with NCI-H226 lung and in the test on SK-OV-3 ovarian was greater than 100 µM in each case.
As to `COc1cc2oc(=O)cc(C)c2c(OC)c1OC`, the TGI in the test on SN12C renal, in the test on CCRF-CEM leukemia, in the test on MDA-MB-231 breast, in the test with COLO 205 colon, in the test on SK-MEL-28 melanoma and in the test on NCI-H226 lung was greater than 100 µM throughout. Further, the TGI with LOX IMVI melanoma and with SK-OV-3 ovarian was greater than 100 µM throughout.
With `COc1ccc(/C=C2\NC(=S)N(CN3CCOCC3)C2=O)cc1`, the TGI with SN12C renal, in the test with CCRF-CEM leukemia, in the test with MDA-MB-231 breast, with COLO 205 colon, in the test on SK-MEL-28 melanoma and in the test with NCI-H226 lung was greater than 100 µM in each case. The TGI in the test on LOX IMVI melanoma and in the test with SK-OV-3 ovarian was greater than 100 µM in each case.
`[B]C(=O)NC(CC(C)C)C(=O)NC1c2ccsc2C(=O)C1O` (configuration not stated) (tested in a mixture with another compound): the TGI in the test with SN12C renal, with NCI-H522 lung, with CCRF-CEM leukemia, with MDA-MB-231 breast, in the test with COLO 205 colon and with SK-MEL-28 melanoma was greater than 100 µM throughout. The TGI in the test with NCI-H226 lung, with LOX IMVI melanoma and in the test on SK-OV-3 ovarian was greater than 100 µM each time.
Take `C[C@H](N)C(=O)Nc1ccc(-c2nc3ccccc3s2)cc1Cl`: the TGI with SN12C renal is 30 µM; in the test on NCI-H522 lung, 46 µM; with CCRF-CEM leukemia it was 29.3 µM; in the test on COLO 205 colon, 26.4 µM; in the test with CAKI-1 renal, 23.2 µM; in the test on SK-MEL-28 melanoma it was 27.7 µM. The figures for the TGI with NCI-H226 lung, in the test on LOX IMVI melanoma and in the test with SK-OV-3 ovarian were 11.2 µM, greater than 100 µM and 32.7 µM, respectively.
Turning to `CC(C)N=C(NC#N)NS(=O)(=O)c1cnccc1NC1CCCCCCC1`, the TGI in the test on SN12C renal, in the test with NCI-H522 lung, in the test on CCRF-CEM leukemia, in the test on MDA-MB-231 breast, with COLO 205 colon and in the test with CAKI-1 renal was greater than 100 µM each time. The TGI in the test on SK-MEL-28 melanoma, with NCI-H226 lung and in the test on SK-OV-3 ovarian was greater than 100 µM in each case.
Turning to `COC(=O)CCC(=O)c1ccc2c(c1)CC1(Cc3ccccc3C1)C2`, the TGI with SN12C renal was greater than 100 µM; in the test on NCI-H522 lung, greater than 100 µM; in the test on CCRF-CEM leukemia it was 45.4 µM; with MDA-MB-231 breast, greater than 100 µM; in the test on COLO 205 colon, 82.3 µM; with NCI-H226 lung, 94.9 µM. Further, the TGI in the test with LOX IMVI melanoma and in the test with SK-OV-3 ovarian was greater than 100 µM each time.
